# Results from PubChem BioAssay (NCI).
#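 Tested at 5 concentrations; 48 h exposure; 96-well plates; endpoints linearly interpolated, else capped at highest concentration. TGI marks complete inhibition of growth.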 *1 amine or outer side, *2 acyl side, *3 side chain or, on linkers, in order; H or OH if unused. Where a SMILES comes first, the peptide text is derived from it. Bridges are numbered along the chain shown (N, C = ends). [ ]: non-standard residue; d: D form. X59 = COc1c(N[*:1])cccc1C(=O)O[C@H](C(=O)[C@H](C)C(=O)[*:2])C(C)C; X58 = CC(C)C[C@H](C(=O)[*:2])C(C)C(=O)C1CCCN1[*:1]; NMeY = CN[C@@H](Cc1ccc(O)cc1)C(=O)O; Lac = C[C@H](O)C(=O)O
# How the values were obtained:
# Test in all cases: growth of human tumour cells (NCI), 48 h
# [1] = system: HCT-15 colon
# [2] = system: HL-60(TB) leukemia
# [3] = system: HOP-62 NSCLC
# [4] = system: HS 578T breast
# [5] = system: HT29 colon
# [6] = system: MOLT-4 leukemia
# [7] = system: SF-295 CNS
# [8] = system: SK-MEL-28 melanoma
# [9] = system: TK-10 renal
# [10] = system: UACC-62 melanoma
# [11] = system: NCI/ADR-RES ovarian
# [12] = system: OVCAR-3 ovarian
Structure (SMILES),TGI [1],TGI [2],TGI [3],TGI [4],TGI [5],TGI [6],TGI [7],TGI [8],TGI [9],TGI [10],TGI [11],TGI [12]
CCN(CC)c1ccc2cc(-c3csc(C)n3)c(=O)oc2c1,> 100 µM,> 100 µM,94.6 µM,67.5 µM,> 100 µM,> 100 µM,> 100 µM,> 100 µM,> 100 µM,> 100 µM,–,–
COC(=O)C1=C(C(=O)OC)C(OO)(c2ccccc2)OC1=O (centres undefined),> 100 µM,> 100 µM,–,–,> 100 µM,> 100 µM,> 100 µM,> 100 µM,> 100 µM,> 100 µM,> 100 µM,> 100 µM
N#Cc1nc(-c2ccc(-c3nc(C#N)c(N)o3)cc2)oc1N,> 10 µM,> 10 µM,> 10 µM,> 10 µM,> 10 µM,> 10 µM,> 10 µM,> 10 µM,> 10 µM,> 10 µM,> 10 µM,–
COc1ccc(C[C@H]2C(=O)O[C@H](C)[C@H](NC(=O)[C@@H](CC(C)C)C(C)C(=O)C3CCCN3C(=O)[C@H](C)O)C(=O)Nc3cccc(c3OC)C(=O)O[C@@H](C(C)C)C(=O)[C@H](C)C(=O)N[C@@H](CC(C)C)C(=O)N3CCC[C@H]3C(=O)N2C)cc1 (some centres undefined) (H-[Lac][X58]T[X59]LP[NMeY](Me); ester 3-C),> 12.5 µM,–,> 12.5 µM,> 12.5 µM,> 12.5 µM,> 12.5 µM,> 12.5 µM,> 12.5 µM,> 12.5 µM,> 12.5 µM,> 12.5 µM,> 12.5 µM
Cc1c(-c2ccccc2)c(C#N)c2nnn(C)c(=O)n12,> 100 µM,> 100 µM,> 100 µM,> 100 µM,> 100 µM,–,> 100 µM,> 100 µM,> 100 µM,> 100 µM,> 100 µM,> 100 µM
O=C(NN1C(=O)C(Cl)C1c1cccc(Cl)c1)c1ccccc1O (centres undefined),> 100 µM,> 100 µM,–,–,> 100 µM,> 100 µM,> 100 µM,> 100 µM,> 100 µM,> 100 µM,–,> 100 µM
CC(C)=CC[C@H]1C[C@@]2(CC=C(C)C)C(=O)/C(=C(/O)c3ccccc3)C(=O)[C@](CC=C(C)C)(C2=O)C1(C)C,26.5 µM,–,29.3 µM,59.6 µM,23.4 µM,> 100 µM,17.8 µM,30.3 µM,20.6 µM,13.6 µM,42.2 µM,–
C=C(C)CCN(C(=O)OC(C)(C)C)c1cc(C(C)C)co1,> 100 µM,43.8 µM,> 100 µM,–,> 100 µM,98 µM,> 100 µM,> 100 µM,> 100 µM,> 100 µM,> 100 µM,> 100 µM
Cn1c(-c2cccs2)cc(-c2ccsc2)c1-c1cccs1,> 100 µM,–,> 100 µM,> 100 µM,> 100 µM,> 100 µM,> 100 µM,> 100 µM,> 100 µM,> 100 µM,> 100 µM,> 100 µM
O=C(CSc1nc2ccc(I)cc2c(=O)n1Cc1ccccc1)NN1C(=O)CSC1c1ccccc1 (centres undefined),40.5 µM,58.9 µM,48.5 µM,–,> 100 µM,> 100 µM,76 µM,95.9 µM,86 µM,36.7 µM,57.2 µM,32.4 µM
Cc1ccc(S(=O)(=O)NC(=O)NCC(N)=O)cc1,> 100 µM,> 100 µM,> 100 µM,> 100 µM,> 100 µM,> 100 µM,> 100 µM,> 100 µM,> 100 µM,> 100 µM,> 100 µM,–
Oc1ccccc1-c1n[nH]c(-c2ccccc2O)n1,> 33.6 µM,> 23.7 µM,> 100 µM,> 100 µM,> 100 µM,> 100 µM,> 100 µM,> 100 µM,> 100 µM,> 100 µM,> 100 µM,–
Cc1ccc(/C=C2\CCCCCC2=O)cc1,> 100 µM,> 100 µM,> 100 µM,> 100 µM,> 100 µM,> 100 µM,> 100 µM,> 100 µM,> 100 µM,> 100 µM,–,> 100 µM
COc1ccc2oc(=O)c(-c3csc(-c4ccccc4)n3)cc2c1,> 100 µM,> 100 µM,34.3 µM,94.5 µM,> 100 µM,> 100 µM,53.6 µM,> 100 µM,50.6 µM,> 100 µM,–,–
Cn1nc(S(N)(=O)=O)s/c1=N/S(=O)(=O)c1ccc(N)cc1,> 100 µM,–,> 100 µM,–,> 100 µM,> 100 µM,> 100 µM,> 100 µM,> 100 µM,> 100 µM,> 100 µM,> 100 µM
CC(C)(C)OC(=O)NC(Cc1ccc(OCc2ccccc2)cn1)C(=O)O (centres undefined),> 100 µM,> 100 µM,> 100 µM,> 100 µM,> 100 µM,–,> 100 µM,> 100 µM,> 100 µM,–,> 100 µM,> 100 µM
COC(=O)/C(C#N)=C(/NCc1ccccc1)Nc1ccccc1,> 100 µM,> 100 µM,> 100 µM,> 100 µM,> 100 µM,> 100 µM,> 100 µM,> 100 µM,> 100 µM,–,> 100 µM,> 100 µM
O=C1COc2cc3c(cc2N1)SCCC(=O)N3,–,> 100 µM,> 100 µM,–,> 100 µM,> 100 µM,> 100 µM,> 100 µM,> 100 µM,> 100 µM,–,> 100 µM
CC(C)(C)Cc1cc(O)ccc1O,> 100 µM,26.6 µM,> 100 µM,–,> 100 µM,> 100 µM,> 100 µM,> 100 µM,> 100 µM,> 100 µM,94.5 µM,> 100 µM
CC(C)(C)OC(=O)NC(Cc1ccc(OCc2ccccc2)cn1)C(N)=O (centres undefined),> 100 µM,> 100 µM,> 100 µM,> 100 µM,> 100 µM,–,> 100 µM,> 100 µM,> 100 µM,–,> 100 µM,> 100 µM
